{"source": "paper PMC8401132", "about": "(Molecules, 2021)", "key": {"SW1222 cells [1]": {"test_system": "SW1222 cells", "test": "CellTiter-Glo ATP cell viability/proliferation, SW1222", "format": "cell-based, human", "protocol": "(§1) SW1222 were cultured in DMEM (Gibco, New York, NY, USA) media supplemented with 10% fetal bovine serum (FBS) (Gibco, New York, NY, USA) and 1% penicillin/streptomycin (Gibco, USA). Both K562 and K562/Adr200 were cultured in RPMI media (Gibco, New York, NY, USA) supplemented with 10% FBS and 1% penicillin/streptomycin. The seeding density for all the three cell lines was 1000 cells per well in 96 wells plates. […] From this experiment, the effective concentration that inhibited the growth of ≥50% of the cells was determined. […] Both metformin and copper sulfate were prepared in sterile nuclease-free water, then added to the media. The cells were maintained in culture for 72 h before any further assessments were done. […] A control sample of untreated cells was included in all experiments. […] The CellTiter-Glo® luminescent cell viability assay was used to determine levels of ATP release from each cell line after 72 h, according to manufacturer’s instructions."}, "K562 cells [2]": {"test_system": "K562 cells", "test": "CellTiter-Glo ATP cell viability/proliferation, K562", "format": "cell-based, human", "conditions": "for Normalized ATP percentage / IC50: 72 h; for IC50: Homo sapiens, K562, 72 h, K562, ATP release", "protocol": "as §1"}, "[3]": {"test_system": "K562-200 (K562/Adr200) cells", "test": "CellTiter-Glo ATP cell viability/proliferation, K562-200", "format": "cell-based, human", "conditions": "for IC50: K562-200, ATP release, 72 h", "protocol": "as §1"}, "[4]": {"test": "Cu(II)/metformin complex formation constants by combined potentiometric-Vis titration", "format": "physicochemical", "conditions": "0.1 M KCl, 25.0 °C, [L] = 4 mM, [Cu^2+] = 2 mM, potentiometry/Vis", "protocol": "Protonation and complex-formation equilibrium studies were carried out under the same conditions described in previous publications. […]. Combined potentiometric–spectrophotometric measurements were performed for protonation equilibria in the 200–400 nm spectral range and in the 400–800 nm spectral range for copper (II) complexes, using 0.2 and 1 cm path lengths, respectively. Protonation and complex formation data were analyzed using the Hyperquad and HypSpec2014 program."}, "SW1222 cells [5]": {"test_system": "SW1222 cells", "test": "Actin stress fiber staining and morphology, SW1222", "format": "cell-based, human", "conditions": "SW1222, 15 mM and 50 mM metformin, 72 h", "protocol": "(§2) To assess the effects on actin stress fiber organization and cell morphology, rhodamine phalloidin was used. Cells were fixed in 4% paraformaldehyde 72 h post-treatment. Cells were permeabilized for 5 min in prechilled 0.5% Triton × 100, 3 mM MgCl2, and 300 mM sucrose, followed by washing with 1× DPBS. A blocking buffer composed of 5% fetal bovine serum (FBS), 0.1% Tween 20, and 0.02% sodium azide was then added to the cells for 30 min. Rhodamine phalloidin was incubated for one hour after removing and discarding the blocking buffer. Cells were subsequently washed with 1× PBS, and DAPI was added for nucleic acid staining prior to fluorescence imaging."}, "K562 cells [6]": {"test_system": "K562 cells", "test": "Actin stress fiber staining, K562", "format": "cell-based, human", "conditions": "K562, 72 h", "protocol": "as §2"}, "K562-200 cells": {"test_system": "K562-200 cells", "test": "Actin stress fiber staining, K562-200", "format": "cell-based, human", "conditions": "K562-200, 72 h", "protocol": "as §2"}, "[7]": {"conditions": "potentiometry, cited from earlier work"}, "[8]": {"set-up": "method as in PMID 21168988", "conditions": "NMR, literature data ref 39; cited from earlier work"}, "[9]": {"conditions": "potentiometry, cited from earlier work", "remark": "listed apart in the source"}, "[10]": {"test_system": "human gastric cancer AGS cells", "conditions": "20 mM for 12 h ref 56; cited from earlier work"}, "[11]": {"test_system": "normal colon CCD 841 CoN cells", "conditions": "10–50 mM for 48 h ref 56; cited from earlier work"}, "[12]": {"test_system": "embryonic lung HEL 299 cells", "conditions": "10–50 mM for 48 h ref 56; cited from earlier work"}, "293 cells": {"test_system": "293 cells", "conditions": "10–50 mM for 48 h ref 56; cited from earlier work"}, "[13]": {"conditions": "patients with diabetes, observational study published in 2005 ref 13; cited from earlier work"}, "[14]": {"conditions": "T2DM / diabetic patients ref 57; cited from earlier work"}}, "note": "Like-named read-outs stand apart in the source and are kept apart here."}
{"smiles": "O=S(=O)([O-])[O-].[Cu+2]", "note": "[Cu(II), copper (II) sulfate]", "values": [{"measurement": "Inhibition of cell proliferation (% of the cells)", "setting": "SW1222 cells [1]; SW1222, 400 µM Cu(II), absence of metformin", "result": "≥ 50", "unit": "%"}, {"measurement": "Effect on cells", "setting": "SW1222 cells [1]; SW1222, 5 mM Cu(II), regardless of metformin concentration", "result": "almost all cells died"}, {"measurement": "Inhibition of cell proliferation (% of the cells)", "setting": "K562 cells [2]; K562, 400 µM Cu(II), absence of metformin", "result": "≥ 50", "unit": "%"}, {"measurement": "Normalized ATP percentage", "setting": "K562 cells [2]; K562, 400 µM Cu(II), no metformin", "result": 47.2, "unit": "%"}, {"measurement": "Effect on cells", "setting": "K562 cells [2]; K562, 5 mM Cu(II), regardless of metformin concentration", "result": "almost all cells died"}, {"measurement": "Inhibition of cell proliferation (% of the cells)", "setting": "[3]; K562-200, 400 µM Cu(II), absence of metformin", "result": "≥ 50", "unit": "%"}, {"measurement": "Effect on cells", "setting": "[3]; K562-200, 5 mM Cu(II), regardless of metformin concentration", "result": "almost all cells died"}]}
{"smiles": "CN(C)C(=N)N=C(N)N", "note": "[metformin, 3-(diaminomethylidene)-1,1-dimethylguanidine]", "values": [{"measurement": "Logβ CuL2", "setting": "[4]", "result": "22.20(7)"}, {"measurement": "Logβ CuL2H", "setting": "[4]", "result": "28.3(1)"}, {"measurement": "Logβ CuLH", "setting": "[4]", "result": "17.87(5)"}, {"measurement": "IC50", "setting": "SW1222 cells [1]; Homo sapiens, SW1222, ATP release, 72 h", "result": 15600, "unit": "µM"}, {"measurement": "IC50", "setting": "K562 cells [2]", "result": 851, "unit": "µM"}, {"measurement": "IC50", "setting": "K562 cells [2]; as in Figure 7B legend", "result": "~1000", "unit": "µM"}, {"measurement": "Normalized ATP percentage", "setting": "K562 cells [2]; K562, 10 mM metformin", "result": 35.2, "unit": "%"}, {"measurement": "IC50", "setting": "[3]; Homo sapiens, K562, 72 h", "result": 63.1, "unit": "µM"}, {"measurement": "IC50", "setting": "[3]", "result": 63, "unit": "µM"}, {"measurement": "Cell shrinkage and rounding", "setting": "SW1222 cells [5]", "result": "dramatically increased"}, {"measurement": "Lowest concentration showing loss of actin stress fibers", "setting": "K562 cells [6]", "result": 1, "unit": "mM"}, {"measurement": "Lowest concentration showing loss of actin stress fibers", "setting": "K562-200 cells", "result": 20, "unit": "µM"}, {"measurement": "Protonation constant LH", "setting": "[7]; literature data ref 37", "result": "11.02 [37]"}, {"measurement": "Protonation constant LH2", "setting": "[7]; literature data ref 37", "result": "2.79 [37]"}, {"measurement": "Protonation constant LH", "setting": "[7]; literature data ref 38", "result": "11.10 [38]"}, {"measurement": "Protonation constant LH2", "setting": "[7]; literature data ref 38", "result": "2.90 [38]"}, {"measurement": "Protonation constant LH", "setting": "[8]", "result": "13.8 [39]"}, {"measurement": "Protonation constant LH2", "setting": "[8]", "result": "3.1 [39]"}, {"measurement": "LogK CuL", "setting": "[9]; literature data ref 38", "result": "8.59 [38]"}, {"measurement": "LogK CuL2", "setting": "[9]; literature data ref 38", "result": "6.35 [38]"}, {"measurement": "LogK CuL", "setting": "[9]; literature data ref 42", "result": "7.17 [42]"}, {"measurement": "LogK CuL2", "setting": "[9]; literature data ref 42", "result": "5.13 [42]"}, {"measurement": "Effect on cell viability", "setting": "[10]", "result": "significantly reduced cell viability"}, {"measurement": "Effect on viability", "setting": "[11]", "result": "no significant effect"}, {"measurement": "Effect on viability", "setting": "[12]", "result": "no significant effect"}, {"measurement": "Effect on viability", "setting": "293 cells", "result": "no significant effect"}, {"measurement": "Decrease in cancer risk with metformin use", "setting": "[13]", "result": 23, "unit": "%"}, {"measurement": "Plasma concentration", "setting": "[14]", "result": "~20", "unit": "µM"}]}
